Experimental data reported in patent publication US20250011288A1 (BRISTOL-MYERS SQUIBB COMPANY, priority 2021, published 2025).

biological target: T1, human RXFP1 (Homo sapiens, UniProt Q9HBX9); assay: human RXFP1 (hRXFP1) HEK293 cAMP assay (HTRF); format: cell-based; conditions: HEK293 cells stably expressing human RXFP1, 30 min at room temperature
T1 construct: expressed in transfected cells
T1 sequence (Q9HBX9 1-757): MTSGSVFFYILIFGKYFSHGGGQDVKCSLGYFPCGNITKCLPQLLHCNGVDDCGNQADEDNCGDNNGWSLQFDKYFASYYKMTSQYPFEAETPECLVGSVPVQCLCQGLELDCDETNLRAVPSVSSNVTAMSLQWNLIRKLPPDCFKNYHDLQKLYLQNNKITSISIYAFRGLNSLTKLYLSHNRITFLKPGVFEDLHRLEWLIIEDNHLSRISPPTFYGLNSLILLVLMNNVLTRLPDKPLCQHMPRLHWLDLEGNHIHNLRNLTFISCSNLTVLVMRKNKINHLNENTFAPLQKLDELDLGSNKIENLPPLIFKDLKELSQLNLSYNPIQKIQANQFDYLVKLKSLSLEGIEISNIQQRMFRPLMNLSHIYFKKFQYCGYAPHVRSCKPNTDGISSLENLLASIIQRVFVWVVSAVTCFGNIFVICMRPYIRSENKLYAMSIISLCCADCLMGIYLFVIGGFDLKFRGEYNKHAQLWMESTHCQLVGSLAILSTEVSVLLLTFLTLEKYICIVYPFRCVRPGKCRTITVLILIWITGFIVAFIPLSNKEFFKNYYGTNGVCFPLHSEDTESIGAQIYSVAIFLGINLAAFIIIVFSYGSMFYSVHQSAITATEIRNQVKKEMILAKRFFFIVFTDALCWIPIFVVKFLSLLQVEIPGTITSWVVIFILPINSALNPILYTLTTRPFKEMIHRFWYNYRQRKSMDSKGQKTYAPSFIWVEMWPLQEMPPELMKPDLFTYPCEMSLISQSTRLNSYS
Protocol: RXFP1 Cyclic Adenosine Monophosphate (cAMP) Assays. […] Cells were dissociated and suspended in assay buffer. The assay buffer was HBSS buffer (with calcium and magnesium) containing 20 mM HEPES, 0.05% BSA, and 0.5 mM IBMX. Cells (3000 cells per well, except 1500 cell per well for HEK293 cells stably expressing human RXFP1) were added to 384-well Proxiplates (Perkin-Elmer). Cells were immediately treated with test compounds in DMSO (2% final) at final concentrations in the range of 0.010 nM to 50 µM. Cells were incubated for 30 min at room temperature. The level of intracellular cAMP was determined using the HTRF HiRange cAMP assay reagent kit (Cisbio) according to manufacturer's instructions. Solutions of cryptate conjugated anti-cAMP and d2 fluorophore-labelled cAMP were made in a supplied lysis buffer separately. Upon completion of the reaction, the cells were lysed with equal volume of the d2-cAMP solution and anti-cAMP solution. […] The potency and activity of a compound to […] cAMP production was then determined by fitting to a 4-parametric logistic equation from a plot of cAMP level versus compound concentrations.

Row | Structure (SMILES) | EC50
1 | COc1cccc2cc(C(=O)N[C@@H]3C4CCC(/C4=C/C(F)(F)F)[C@@H]3C(=O)Nc3ccc(F)c(C(F)(F)F)c3)cnc12 (stereo partly drawn) [Example 14, N-[(2R,3S,7Z)-3-{[4-fluoro-3-(trifluoromethyl)phenyl]carbamoyl}-7-(2,2,2-trifluoroethylidene)bicyclo[2.2.1]heptan-2-yl]-8-methoxyquinoline-3-carboxamide] | 2900 nM
2 | Cn1c(=O)c(C(=O)N[C@@H]2C3CCC(/C3=C/C(F)(F)F)[C@@H]2C(=O)Nc2ccc(F)c(C(F)(F)F)c2)cc2ccccc21 (stereo partly drawn) [Example 15, N-[(2R,3S,7Z)-3-{[4-fluoro-3-(trifluoromethyl)phenyl]carbamoyl}-7-(2.2,2-trifluoroethylidene)bicyclo[2. 2.1]heptan-2-yl]-1-methyl-2-oxo-1,2-dihydroquinoline-3-carboxamide] | 3500 nM
3 | O=C(N[C@@H]1C2CCC(/C2=C/C(F)(F)F)[C@@H]1C(=O)Nc1ccc(F)c(C(F)(F)F)c1)c1cc(=O)c2ccccc2o1 (stereo partly drawn) [Example 16, N-[(2R,3S,7Z)-3-{[4-fluoro-3-(trifluoromethyl)phenyl]carbamoyl}-7-(2,2,2-trifluoroethylidene)bicyclo[2. 2.1]heptan-2-yl]-4-oxo-4H-chromene-2-carboxamide] | 3800 nM
4 | O=C(N[C@@H]1C2CCC(/C2=C/C(F)(F)F)[C@@H]1C(=O)Nc1ccc(F)c(C(F)(F)F)c1)c1cnc2ccc(Cl)cc2c1 (stereo partly drawn) [Example 17, 6-chloro-N-[(2R,3S,7Z)-3-{[4-fluoro-3-(trifluoromethyl)phenyl]carbamoyl}-7-(2,2,2-trifluoroethylidene)bicyclo[2.2.1]heptan-2-yl]quinoline-3-carboxamide] | 4500 nM
5 | Cn1cc(Br)cc(C(=O)N[C@@H]2C3CCC(/C3=C/C3CC3)[C@@H]2C(=O)Nc2ccc(F)c(C(F)(F)F)c2)c1=O (stereo partly drawn) [Example 18, 5-bromo-N-[(2R,3S,7Z)-7-(cyclopropyl-methylidene)-3-{[4-fluoro-3-(trifluoromethyl)phenyl]carbamoyl}bicyclo [2.2.1]heptan-2-yl]-1-methyl-2-oxo-1,2-dihydropyridino-3-carboxamide] | 2100 nM
6 | Cn1c(=O)c(C(=O)N[C@@H]2C3CCC(/C3=C/C3CC3)[C@@H]2C(=O)Nc2ccc(F)c(C(F)(F)F)c2)cc2ccccc21 (stereo partly shown) [Example 19] | 4000 nM
7 | COc1ncc(-c2ccc(C(=O)O)cc2)cc1C(=O)N[C@@H]1C2CCC(C2=C(C)C)[C@@H]1C(=O)Nc1ccc(F)c(C(F)(F)F)c1 (stereo partly drawn) [Example 20, 4-(5-{[(2R,3S)-3-{[4-fluoro-3-(trifluoromethyl)phenyl]carbamoyl}-7-(propan-2-ylidene)bicyclo[2.2.1]heptan-2-yl]carbamoyl}-6-methoxypyridin-3-yl)benzoic acid] | 250 nM
8 | COc1ncc(-c2cc(C(=O)O)ccc2F)cc1C(=O)N[C@@H]1C2CCC(C2=C(C)C)[C@@H]1C(=O)Nc1ccc(F)c(C(F)(F)F)c1 (stereo partly drawn) [Example 21, 4-fluoro-3-(5-{[(2R,3S)-3-{[4-fluoro-3-(trifluoromethyl)phenyl]carbamoyl}-7-(propan-2-ylidene)bicyclo[2.2.1]heptan-2-yl]carbamoyl}-6-methoxypyridin-3-yl)benzoic acid] | 80 nM
9 | COc1ccc(-c2ccc(C(=O)O)cc2)nc1C(=O)N[C@@H]1C2CCC(C2=C(C)C)[C@@H]1C(=O)Nc1ccc(F)c(C(F)(F)F)c1 (stereo partly drawn) [Example 22, 4-(6-{[(2R,3S)-3-{[4-fluoro-3-(trifluoromethyl)phenyl]carbamoyl}-7-(propan-2-ylidene)bicyclo [2.2.1]heptan-2-yl]carbamoyl}-5-methoxypyridin-2-yl)benzoic acid] | 1700 nM
10 | COc1ccc(-c2cc(C(=O)O)ccc2F)nc1C(=O)N[C@@H]1C2CCC(C2=C(C)C)[C@@H]1C(=O)Nc1ccc(F)c(C(F)(F)F)c1 (stereo partly drawn) [Example 23, 4-Fluoro-3-(6-{[(2R,3S)-3-{[4-fluoro-3-(trifluoromethyl)phenyl]carbamoyl}-7-(propan-2-ylidene)bicyclo [2.2.1]heptan-2-yl]carbamoyl}-5-methoxypyridin-2-yl)benzoic acid] | 2400 nM
11 | COc1ncc(-c2cc(C(=O)O)ccc2F)nc1C(=O)N[C@@H]1C2CCC(C2=C(C)C)[C@@H]1C(=O)Nc1ccc(F)c(C(F)(F)F)c1 (stereo partly drawn) [Example 24, 4-Fluoro-3-(6-{[(2R,3S)-3-{[4-fluoro-3-(trifluoromethyl)phenyl]carbamoyl}-7-(propan-2-ylidene)bicyclo [2.2.1]heptan-2-yl]carbamoyl}-5-methoxypyrazin-2-yl)benzoic acid] | 1000 nM
12 | COc1ncc(-c2cc(C(=O)O)ccc2F)cc1C(=O)N[C@@H]1C2CCC(/C2=C/c2ccccc2)[C@@H]1C(=O)Nc1ccc(F)c(C(F)(F)F)c1 (stereo partly drawn) [Example 25, 4-Fluoro-3-(5-{[(2R,3S,7Z)-3-{[4-fluoro-3-(trifluoromethyl)phenyl]carbamoyl}-7-(phenylmethylidene)bicyclo[2.2.1]heptan-2-yl]carbamoyl}-6-methoxypyridin-3-yl)benzoic acid] | 33 nM
13 | COc1ncc(-c2cc(C(=O)O)ccc2F)nc1C(=O)N[C@H]1[C@@H](C(=O)Nc2ccc(F)c(C(F)(F)F)c2)[C@H]2CC[C@@H]1/C2=C\c1cnoc1 [Example 26, 4-fluoro-3-(6-(((1R,2R,3S,4R,Z)-3-((4-fluoro-3-(trifluoromethyl)phenyl)carbamoyl)-7-(isoxazol-4-ylmethylene)bicyclo[2.2.1]heptan-2-yl)carbamoyl)-5-methoxypyrazin-2-yl)benzoic acid] | 76 nM
14 | COc1ccc(-c2cc(C(=O)O)ccc2F)nc1C(=O)N[C@@H]1C2CCC(/C2=C/c2cnoc2)[C@@H]1C(=O)Nc1ccc(F)c(C(F)(F)F)c1 (stereo partly drawn) [Example 27, 4-Fluoro-3-(6-{[(2R,3S,7Z)-3-{[4-fluoro-3-(trifluoromethyl)phenyl]carbamoyl}-7-[(1,2-oxazol-4-yl)methylidene]bicyclo[2.2.1]heptan-2-yl]carbamoyl}-5-methoxypyridin-2-yl)benzoic acid] | 290 nM
15 | COc1ncc(-c2cc(C(=O)O)ccc2F)cc1C(=O)N[C@@H]1C2CCC(/C2=C/C(F)(F)F)[C@@H]1C(=O)Nc1ccc(F)c(C(F)(F)F)c1 (stereo partly drawn) [Example 28, 4-Fluoro-3-(5-{[(2R,3S,7Z)-3-{[4-fluoro-3-(trifluoromethyl)phenyl]carbamoyl}-7-(2,2,2-trifluoroethylidene)bicyclo[2. 2.1]heptan-2-yl]carbamoyl}-6-methoxypyridin-3-yl)benzoic acid] | 34 nM
16 | COc1ncc(-c2cccc(C(=O)O)c2)cc1C(=O)N[C@@H]1C2CCC(/C2=C/C(F)(F)F)[C@@H]1C(=O)Nc1ccc(F)c(C(F)(F)F)c1 (stereo partly drawn) [Example 29, 3-(5-{[(2R,3S,7Z)-3-{[4-fluoro-3-(trifluoromethyl)phenyl]carbamoyl}-7-(2,2,2-trifluoroethylidene)bicyclo[2.2.1]heptan-2-yl]carbamoyl}-6-methoxypyridin-3-yl)benzoic acid] | 136 nM
17 | COc1cnc(-c2cc(C(=O)O)ccc2F)cc1C(=O)N[C@@H]1C2CCC(/C2=C/C(F)(F)F)[C@@H]1C(=O)Nc1ccc(F)c(C(F)(F)F)c1 (stereo partly drawn) [Example 30, 4-Fluoro-3-(4-{[(2R,3S,7Z)-3-{[4-fluoro-3-(trifluoromethyl)phenyl]carbamoyl}-7-(2,2,2-trifluorocthylidene)bicyclo[2. 2.1]heptan-2-yl]carbamoyl}-5-methoxypyridin-2-yl)benzoic acid] | 109 nM
18 | COc1cnc(-c2cccc(C(=O)O)c2)cc1C(=O)N[C@@H]1C2CCC(/C2=C/C(F)(F)F)[C@@H]1C(=O)Nc1ccc(F)c(C(F)(F)F)c1 (stereo partly drawn) [Example 31, 3-(4-{[(2R,3S,7Z)-3-{[4-fluoro-3-(trifluoromethyl)phenyl]carbamoyl}-7-(2,2,2-trifluoroethylidene)bicyclo[2.2.1]heptan-2-yl]carbamoyl}-5-methoxypyridin-2-yl)benzoic acid] | 162 nM
19 | COc1cnc(-c2cc(C(=O)O)ccc2F)nc1C(=O)N[C@@H]1C2CCC(/C2=C/C(F)(F)F)[C@@H]1C(=O)Nc1ccc(F)c(C(F)(F)F)c1 (stereo partly drawn) [Example 32, 4-Fluoro-3-(4-{[(2R,3S,7Z)-3-{[4-fluoro-3-(trifluoromethyl)phenyl]carbamoyl}-7-(2,2,2-trifluoroethylidene)bicyclo[2. 2.1]heptan-2-yl]carbamoyl}-5-methoxypyrimidin-2-yl)benzoic acid] | 166 nM
